Series [1] in a line: Metabolites in 24-hour urine of rats given Maillard reaction products orally (HPLC). The following applies: rat. As to the method: Then, 100 μl of acetonitrile/phosphate buffer (7/93) adjusted to pH 2.0 was injected into the HPLC apparatus through the injection microsyringe. The apparatus and the experimental conditions were the same as those described above.
The specification of the HPLC apparatus and experimental conditions were the same as described above.

The test system of series [2] is male Wistar rats. The series is described as follows: Blood free-fatty acid level time course after 5-MPCA. The class given is in vivo, rat. The following applies: 50 mg/kg, 1, 2, 4 and 6 hours after administration. As to the method:
Further, using four-week-old male Wistar rats, the following experiment was performed. A control group was administered with physiological saline. A test group was administered with a solution of 50 mg/kg of 5-methylpyrazine-2-carboxylic acid (5-MPCA) dissolved in physiological saline. Immediately before starting the administration and 1, 2, 4, and 6 hours after the administration, each 6 rats were decapitated and blood was collected from each rat. According to a conventional method, plasma was separated from each sample blood and blood levels of free-fatty acid (FFA) were determined using a kit for determining free-fatty acid level. […] That is, FIG. 10 is a diagram showing the effect of 5-methylpyrazinecarboxylic acid on the blood free-fatty acid level of the rats.

Series [3] concerns absorption of glucose in digestive tracts. The following applies: animal test; cited from earlier work.
In series [4] the test system is male Wistar rats. The following applies: oral, 10 mg/kg nicotinic acid alone.
The test system of series [5] is male Wistar rats.
Series [6] is described as follows: Water solubility as described for addition to liquid foods. The class given is physicochemical. As to the method: The case where the above-mentioned group A to C compounds are added to any liquid foods and beverages (coffee, refreshing beverages, etc.) or hydrophilic solutions (for example, aqueous solutions and alcohol solutions) is described hereinbelow. […] Since the group B compounds are water-soluble but have strong volatility, it is recommended that simple dissolution thereof may be performed after concentration of a coffee extract and freeze-drying, if any. […] Since the group C compounds are water-soluble but have weak volatility, they may be simply dissolved similarly to the group B compounds.

For a further series, the system named is insulin sensitivity. Conditions: rat, in vivo; cited from earlier work.

Read-outs that look alike come from different tables or passages of the source.

In the case of `Cc1cnc(C)cn1` [2,5-dimethylpyrazine], the “conversion by metabolism in liver” value in series [1] (50 mg/kg, 24-hour urine) was “converted into a group C compound”. `Cc1cnc(C(=O)O)cn1` [5-MPCA, 5-methyl-pyrazine-2-carboxylic acid]: the “rebound phenomenon of blood free-fatty acid level” value in the series with male Wistar rats [2] is “no rebound phenomenon”. `O=C(/C=C/c1ccc(O)c(O)c1)O[C@@H]1C[C@](O)(C(=O)O)C[C@@H](O)[C@H]1O` [Chlorogenic acid, chlorogenic acid]: in series [3], the “speed of absorption of glucose in digestive tracts” value is “reducing a speed of absorption of glucose in digestive tracts”. As to `O=C(O)c1cccnc1` [nicotinic acid], the “rebound phenomenon after 1 hour of the administration” value in the series on male Wistar rats [4] is listed as “present in a mixed manner”. Moreover, in the series with male Wistar rats [4], the “rebound phenomenon after 2 hours of the administration” value is listed as “all the animals showed the rebound phenomenon”. In addition, the “time after which rebound phenomenon was observed” value in the series with male Wistar rats [5] (10 to 20 mg/kg) came out at 2 h; in the series with male Wistar rats [5] (oral, 5 mg/kg), 1 h; in the series with male Wistar rats [5] (oral, 10 mg/kg) it was 2 h; in the series with male Wistar rats [5] (oral, 50 mg/kg), 4 h. In addition, in the series on male Wistar rats [5] (oral, any dose of from 5 mg/kg to 50 mg/kg), the “blood free-fatty acid level after 30 minutes of the administration” value is on record as no more than 0.5 mEq/l. As for `O=Cc1ccc[nH]1` [pyrrole-2-aldehyde], the “recovery in urine (in words)” value in series [1] (50 mg/kg oral, urine collected after 24 hours) is recorded as “almost quantitative”.

Consider `Cc1nc(C)c(C)nc1C` [tetramethylpyrazine], for which the water solubility result in series [6] is given as “hardly water-soluble”. For the molecule chlorogenic lactone, the insulin sensitivity entry in the series on insulin sensitivity was “Enhancement of insulin sensitivity”.

(Values after US20080227832A1, “Modified Coffee, Method of Roasting Coffee Bean, Coffee-Like Supplement and Auxiliary Food” (TAMA-TLO Corporation, priority 2004, published 2008).)
